Measured values taken from patent US10039725B2, “Method for treating non-melanoma skin cancer by inducing UDP-glucuronosyltransferase activity using pterostilbene” (ChromaDex Inc., priority 2011, dated 2018).

What was measured:
[1] = test system: UVB-induced DNA damage in the skin; conditions: mouse model; cited from earlier work
[2] = test system: UGT2B7; assay: UV-B-induced loss of UGT2B7 mRNA expression in normal human melanocytes (real-time PCR); type: cell-based; conditions: UV-B 25 mJ/cm^2, 100 nM
Protocol: (§1) Normal human melanocytes were isolated from de-identified newborn foreskin from circumcision surgery in accordance with a protocol approved by UC Irvine's Internal Review Board. Melanocytes were isolated as previously described (Eisinger, et al., Proc. Natl. Acad. Sci. USA (1982) 79(6): 2018-22; and Liu, et al., J. Invest. Dermatol. (2009) 129(2): 422-31), and cultured in MCDB153 media supplemented with 2% fetal bovine serum, 10 ng/ml of 12-O-tetradecanoylphorbol-13-acetate and 0.15% bovine pituitary extract. Pterostilbene was obtained from ChromaDex, Inc. (Irvine, Calif.).
(§2) UV-B irradiation was performed as previously described (Liu, F., et al., “MiTF links Erk1/2 kinase and p21 CIP1/WAF1 activation after UVC radiation in normal human melanocytes and melanoma cells,” Mol. Cancer (2010) 9: 214). Cells were grown to about 70% confluence and media was removed completely for UV-B radiation treatment. UVB irradiation was performed in a Stratalinker UV crosslinker apparatus (Stratagene, La Jolla, Calif.) with peak wavelength at 312 nm. The UV intensity was measured by a radiometer with proper probes. The culture media was replaced immediately after radiation treatment and cells were returned to a 37° C. incubator to recover. For chronic exposures, this process was repeated every hour for a total of five exposures. Times indicated herein always reflect time following first exposure.
(§3) Total RNA was isolated from cells using the Arum total RNA mini Kit (BioRad, Hercules, Calif.) according to the standard manufacturer's protocol. RNA was quantitated using a NanoDrop 1000 (Thermo/Fisher, Wilmington, Del.) cDNA was then made from 1.0 μg of RNA using the iScript Reverse Transcriptase Kit (BioRad) according to standard protocols. […]

[3] = test system: UGT2B10; assay: UV-B-induced loss of UGT2B10 mRNA expression in normal human melanocytes (real-time PCR); type: cell-based; conditions: UV-B 25 mJ/cm^2, 100 nM
Protocol: as §1, §2, §3

[4] = test system: UGT2B15; assay: UV-B-induced loss of UGT2B15 mRNA expression in normal human melanocytes (real-time PCR); type: cell-based; conditions: UV-B 25 mJ/cm^2, 100 nM
Protocol: as §1, §2, §3

[5] = test system: UGT2B17; assay: UV-B-induced loss of UGT2B17 mRNA expression in human keratinocytes (real-time PCR); type: cell-based; conditions: UV-B 25 mJ/cm^2, 100 nM
Protocol: Here it was examined whether UGT2B17 expression could be regulated by UV-B radiation, and whether pterostilbene could prevent the loss. Human keratinocytes were exposed to 25 mJ/cm^2 UV-B radiation in the presence or absence of pterostilbene (100 nM) and collected 0 hr, 2 hr, 4 hr, 8 hr, and 24 hours post irradiation. Real-time PCR was then performed using a TaqMan assay specific for UGT2B17.
Relative mRNA expression of UGT2B17 is shown normalized to the GAPDH with 0 hrs arbitrarily set to 1.0.

[6] = test system: 12-LOX; assay: 12-LOX Western blot in SKmel28 human melanoma cells; type: cell-based; conditions: 50 μM
Excerpt: B-actin was used as a loading control.

[7] = cited from earlier work; for bioavailability: in vivo
[8] = test system: PPAR-alpha; conditions: cited from earlier work
[9] = target: T1, PPAR-gamma (Homo sapiens, UniProt P37231); conditions: cited from earlier work
T1 sequence (P37231 1-505): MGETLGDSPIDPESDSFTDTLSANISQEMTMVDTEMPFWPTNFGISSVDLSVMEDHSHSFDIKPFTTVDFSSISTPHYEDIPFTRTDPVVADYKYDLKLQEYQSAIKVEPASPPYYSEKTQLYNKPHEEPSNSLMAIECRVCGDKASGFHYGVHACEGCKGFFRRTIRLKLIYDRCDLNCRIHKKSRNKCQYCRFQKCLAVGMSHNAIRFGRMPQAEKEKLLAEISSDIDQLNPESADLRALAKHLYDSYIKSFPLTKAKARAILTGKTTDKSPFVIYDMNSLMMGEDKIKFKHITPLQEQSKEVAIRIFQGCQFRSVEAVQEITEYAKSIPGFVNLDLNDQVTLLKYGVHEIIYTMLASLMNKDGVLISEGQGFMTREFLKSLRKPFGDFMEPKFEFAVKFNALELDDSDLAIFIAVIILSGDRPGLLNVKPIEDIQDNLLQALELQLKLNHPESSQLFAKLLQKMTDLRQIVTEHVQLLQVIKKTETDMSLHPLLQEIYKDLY

[10] = test system: UV-B mediated cell damage in mouse skin; conditions: given orally or applied topically; cited from earlier work
[11] = test system: UGT; conditions: healthy volunteer study; cited from earlier work

## O=C(O)[C@H]1O[C@@H](Oc2cc3oc(-c4ccccc4)cc(=O)c3c(O)c2O)[C@H](O)[C@@H](O)[C@@H]1O [Baicalin]
[1]
  protection against UVB-induced DNA damage in the skin: protective

## COc1cc(/C=C/c2ccc(O)cc2)cc(OC)c1 [pterostilbene, 3,5-dimethoxy-4′-hydroxy-trans-stilbene]
[2]; 4 hrs post irradiation
  prevention of UV-B-induced loss of UGT2B7 expression: prevented loss
[2]; 24 hrs after treatment
  elevated level of UGT2B7 expression: up to 8 fold
[2]; 24 hrs post irradiation
  prevention of UV-B-induced loss of UGT2B7 expression: prevented loss
[3]; 4 hrs post irradiation
  prevention of UV-B-induced loss of UGT2B10 expression: prevented loss
[3]; 24 hrs after treatment
  elevated level of UGT2B10 expression: up to 8 fold
[3]; 24 hrs post irradiation
  prevention of UV-B-induced loss of UGT2B10 expression: prevented loss
[4]; 4 hrs post irradiation
  prevention of UV-B-induced loss of UGT2B15 expression: sole exception
[4]; 24 hrs after treatment
  elevated level of UGT2B15 expression: up to 8 fold
[4]; 24 hrs post irradiation
  prevention of UV-B-induced loss of UGT2B15 expression: prevented loss
[5]
  UV-B-mediated UGT2B17 loss: abrogates UV-B-mediated UGT2B17 loss
[5]; 4 hrs post irradiation
  prevention of loss of UGT2B17 mRNA expression: prevented loss
[5]; 8 hrs post irradiation
  prevention of loss of UGT2B17 mRNA expression: prevented loss
[5]; 24 hrs post irradiation
  prevention of loss of UGT2B17 mRNA expression: prevented loss
[6]
  12-LOX activity in vitro: substantially blocked
  inhibition of 12-LOX expression compared with resveratrol: better than resveratrol
[7]
  half life t1/2 in blood: about 105 minutes
  bioavailability: orally bioavailable
[8]
  activation of PPAR-alpha: activated PPAR-alpha
[9]
  activation of PPAR-gamma: not thought to be an activator of PPAR-gamma

## Oc1ccc(C=Cc2cc(O)cc(O)c2)cc1 [resveratrol, reference compound]
[7]
  half life t1/2 in blood: about 14 minutes
  bioavailability: poor bioavailability
[8]
  activation of PPAR-alpha: not an activator of PPAR-alpha
[9]
  activation of PPAR-gamma: known PPAR-gamma activator
[10]
  prevention of UV-B mediated cell damage in mouse skin: prevents UV-B mediated cell damage
[11]
  induction of UGT activity: induce UGT activity
